Results from patent US20080039422A1, “Vitamin B12-Containing Compositions and Methods of Use” (Transition Therapeutics Inc., priority 2004, published 2008).
Values joined by “and” are separate entries in the source; they are usually repeats but may differ in a detail not shown here. Equal entries are not always repeated.

Test: Solubility study (saturated solubility of CN-Cbl, 25°C, 16 hours, UV)
Assay type: physicochemical
Source text: During the solubility study the following were investigated: • cosolvents (mixtures of ethanol and propylene glycol) • in-situ salt formers • surfactants • pH effects • in-situ salt formers and cosolvents Solubility Study Method
Results of CN-Cbl Solubility in Water and Determination of Equilibrium Time

[1] = Ref. FD4068 29A, buffer Sodium citrate, citric acid, Initial pH 2.64
[2] = Ref. FD4068 30A, buffer Sodium citrate, citric acid, Initial pH 4.75
[3] = Ref. FD4068 30B, buffer Disodium hydrogen phosphate, sodium dihydrogen phosphate, Initial pH 7.03
[4] = Ref. FD4068 31A, buffer Diethanolamine, hydrochloric acid, Initial pH 8.93

cyanocobalamin [CN-Cbl]
Saturated Solubility (0.1 M Choline (12.12 mg/ml), Initial pH 12.54): 29.5 mg/mL | Saturated Solubility (0.1 M Diethanolamine (10.51 mg/ml), Initial pH 10.80): 18.1 mg/mL | Saturated Solubility (0.1 M L-arginine (17.42 mg/ml), Initial pH 10.88): 18.2 mg/mL | Saturated Solubility (0.1 M L-lysine (16.42 mg/ml), Initial pH 9.60): 16.3 mg/mL | Saturated Solubility (0.1 M Meglumine (19.52 mg/ml), Initial pH 11.00): 18.0 mg/mL | Saturated Solubility (0.1 M Triethanolamine (14.92 mg/ml), Initial pH 10.13): 18.6 mg/mL | Saturated Solubility (0.1 M Triethylamine (10.12 mg/ml), Initial pH 11.64): 24.9 mg/mL | Saturated Solubility (Ref. FD4068 14A, Propylene glycol 30% v/v, Ethanol 5% v/v): 36.6 mg/mL | Saturated Solubility (Ref. FD4068 15A, Propylene glycol 32% v/v, Ethanol 5% v/v): 39.8 mg/mL | Saturated Solubility (Ref. FD4068 15B, Propylene glycol 34% v/v, Ethanol 5% v/v): 39.1 mg/mL | Saturated Solubility (Ref. FD4068 15C, Propylene glycol 36% v/v, Ethanol 5% v/v): 41.8 mg/mL | Saturated Solubility (Ref. FD4068 16A, Propylene glycol 38% v/v, Ethanol 5% v/v): 45.5 mg/mL | Saturated Solubility (Ref. FD4068 16B, Propylene glycol 40% v/v, Ethanol 5% v/v): 48.1 mg/mL | Saturated Solubility (Ref. FD4068 16C, Propylene glycol 30% v/v, Ethanol 10% v/v): 45.6 mg/mL | Saturated Solubility (Ref. FD4068 16D, Propylene glycol 32% v/v, Ethanol 10% v/v): 45.8 mg/mL | Saturated Solubility (Ref. FD4068 17A, Propylene glycol 34% v/v, Ethanol 10% v/v): 47.8 mg/mL | Saturated Solubility (Ref. FD4068 17B, Propylene glycol 36% v/v, Ethanol 10% v/v): 51.0 mg/mL | Saturated Solubility (Ref. FD4068 17C, Propylene glycol 38% v/v, Ethanol 10% v/v): 52.2 mg/mL | Saturated Solubility (Ref. FD4068 17D, Propylene glycol 40% v/v, Ethanol 10% v/v (no surfactant)): 53.8 mg/mL | Saturated Solubility (Ref. FD4068 26A, 5% w/v Polysorbate 80, 40% v/v propylene glycol, 10% v/v ethanol): 49.0 mg/mL | Saturated Solubility (Ref. FD4068 26B, 5% w/v Polysorbate 20, 40% v/v propylene glycol, 10% v/v ethanol): 46.5 mg/mL | Saturated Solubility (Ref. FD4068 26C, 5% w/v Paloxamer 188, 40% v/v propylene glycol, 10% v/v ethanol): 45.1 mg/mL | Saturated Solubility (Ref. FD4068 27A, 5% w/v Cremophor RH40, 40% v/v propylene glycol, 10% v/v ethanol): 47.1 mg/mL | Saturated Solubility [1]: 15.3 mg/mL | pH of CN-Cbl Solution [1]: 2.89 | Saturated Solubility [2]: 15.0 mg/mL | pH of CN-Cbl Solution [2]: 4.83 | Saturated Solubility [3]: 13.6 mg/mL | pH of CN-Cbl Solution [3]: 7.02 | Saturated Solubility [4]: 17.5 mg/mL | pH of CN-Cbl Solution [4]: 8.80 | pH of CN-Cbl Solution (Ref. FD4068 33, 0.1 M Choline, 40% v/v propylene glycol, 10% v/v ethanol): 12.61 | Saturated Solubility (Ref. FD4068 33, Choline 0.100 M (12.12 mg/ml), 40% v/v propylene glycol, 10% v/v ethanol): 91.8 mg/ml and 0.068 M | pH of CN-Cbl Solultion (Ref. FD4068 33, Choline 0.100 M, 40% v/v propylene glycol, 10% v/v ethanol, Initial pH 12.68): 12.6 and 12.61 | pH of CN-Cbl Solution (Ref. FD4068 34, 0.1 M Triethylamine, 40% v/v propylene glycol, 10% v/v ethanol): 10.97 | Saturated Solubility (Ref. FD4068 38A, 10% v/v Ethanol, 40% v/v Propylene Glycol, 0.1 M Choline, pH adjusted with hydrochloric acid, Initial pH 8.58): 60.3 mg/mL | pH of CN-Cbl Solution (Ref. FD4068 38A, 10% v/v Ethanol, 40% v/v Propylene Glycol, 0.1 M Choline, Initial pH 8.58): 8.10 | Saturated Solubility (Ref. FD4068 38B, 10% v/v Ethanol, 40% v/v Propylene Glycol, 0.1 M Choline, pH adjusted with hydrochloric acid, Initial pH 7.85): 59.4 mg/mL | pH of CN-Cbl Solution (Ref. FD4068 38B, 10% v/v Ethanol, 40% v/v Propylene Glycol, 0.1 M Choline, Initial pH 7.85): 7.70 | Saturated Solubility (Ref. FD4068 39B, 10% v/v Ethanol, 40% v/v Propylene Glycol, 0.1 M Choline, pH adjusted with hydrochloric acid, Initial pH 8.99): 63.1 mg/mL | pH of CN-Cbl Solution (Ref. FD4068 39B, 10% v/v Ethanol, 40% v/v Propylene Glycol, 0.1 M Choline, Initial pH 8.99): 8.01 | Saturated Solubility (Ref. FD4068 39C, 10% v/v Ethanol, 40% v/v Propylene Glycol, 0.1 M Choline, pH adjusted with hydrochloric acid, Initial pH 7.43): 63 mg/mL | pH of CN-Cbl Solution (Ref. FD4068 39C, 10% v/v Ethanol, 40% v/v Propylene Glycol, 0.1 M Choline, Initial pH 7.43): 8.00 | Saturated Solubility (Ref. FD4068 42A, Choline 0.055 M (6.71 mg/ml), 40% v/v propylene glycol, 10% v/v ethanol): 80.8 mg/ml and 0.060 M | pH of CN-Cbl Solultion (Ref. FD4068 42A, Choline 0.055 M, 40% v/v propylene glycol, 10% v/v ethanol, Initial pH 12.49): 12.44 | Saturated Solubility (Ref. FD4068 42B, Choline 0.068 M (8.23 mg/ml), 40% v/v propylene glycol, 10% v/v ethanol): 82.8 mg/ml and 0.061 M | pH of CN-Cbl Solultion (Ref. FD4068 42B, Choline 0.068 M, 40% v/v propylene glycol, 10% v/v ethanol, Initial pH 12.63): 12.53 | Saturated Solubility (Ref. FD4068 43A, Choline 0.111 M (13.41 mg/ml), 40% v/v propylene glycol, 10% v/v ethanol): 92.1 mg/ml and 0.068 M | pH of CN-Cbl Solultion (Ref. FD4068 43A, Choline 0.111 M, 40% v/v propylene glycol, 10% v/v ethanol, Initial pH 12.80): 12.76 | pH of CN-Cbl Solution (Ref. FD4068 89B, 0.15 ml 2m HCl + 0.025M pH 5.6 citrate buffer, Choline 0.044 M): 6.97 | Saturated Solubility (Ref. FD4068 89B, 0.15 ml 2m HCl + 0.025M pH 5.6 citrate buffer, Choline 0.044 M (5.34 mg/ml), Initial pH 7.03): 52.6 mg/mL | pH of CN-Cbl Solution (Ref. FD4068 96, 0.2 ml 2M HCl + 0.025M pH 7.0 phosphate buffer, Choline 0.044 M): 7.96 | Saturated Solubility (Ref. FD4068 96, 0.2 ml 2M HCl + 0.025M pH 7.0 phosphate buffer, Choline 0.044 M (5.34 mg/ml), Initial pH 8.10): 54.5 mg/mL | pH of CN-Cbl Solution (Ref. FD4068 102A, 0.4m 2M HCl + 0.025M pH 6.8 phosphate buffer, Choline 0.088 M): 7.97 | Saturated Solubility (Ref. FD4068 102A, 0.4m 2M HCl + 0.025M pH 6.8 phosphate buffer, Choline 0.088 M (10.67 mg/ml), Initial pH 8.12): 58.5 mg/mL | pH of CN-Cbl Solution (Ref. FD4068 103, no buffer, pH adjusted with HCl, Choline 0.044 M): 7.21 | Saturated Solubility (Ref. FD4068 103, no buffer, pH adjusted with HCl, Choline 0.044 M (5.34 mg/ml), Initial pH 8.05): 54.6 mg/mL | Saturated Solubility (Ref. FD4068 107A, Choline chloride 0.044 M (6.14 mg/ml, Molar Ratio 1:1), 40% v/v propylene glycol, 10% v/v ethanol, pH adjusted to 8 with sodium hydroxide): 53.2 mg/mL | pH of CN-Cbl Solution (Ref. FD4068 107A, Choline chloride 0.044 M, 40% v/v propylene glycol, 10% v/v ethanol): 6.36 | Saturated Solubility (Ref. FD4068 108B, Choline chloride 0.221 M (30.86 mg/ml, Molar Ratio 1:5), 40% v/v propylene glycol, 10% v/v ethanol, pH adjusted to 8 with sodium hydroxide): 60.1 mg/mL | pH of CN-Cbl Solution (Ref. FD4068 108B, Choline chloride 0.221 M, 40% v/v propylene glycol, 10% v/v ethanol): 6.51 | Saturated Solubility (Ref. FD4068 109A, Choline chloride 0.133 M (18.57 mg/ml, Molar Ratio 1:3), 40% v/v propylene glycol, 10% v/v ethanol, pH adjusted to 8 with sodium hydroxide): 57.4 mg/mL | pH of CN-Cbl Solution (Ref. FD4068 109A, Choline chloride 0.133 M, 40% v/v propylene glycol, 10% v/v ethanol): 6.63 | Saturated Solubility (Ref. FD4068 110A, Choline chloride 0.443 M (61.81 mg/ml, Molar Ratio 1:10), 40% v/v propylene glycol, 10% v/v ethanol, pH adjusted to 8 with sodium hydroxide): 66.6 mg/mL | pH of CN-Cbl Solution (Ref. FD4068 110A, Choline chloride 0.443 M, 40% v/v propylene glycol, 10% v/v ethanol): 6.40 | Saturated Solubility (Ref. FD4068 112A, Choline chloride 0.443 M (61.81 mg/ml, 1:10), 40% v/v propylene glycol, 10% v/v ethanol, 0.025 M phosphate buffer pH 8): 66.8 mg/mL | pH of CN-Cbl Solution (Ref. FD4068 112A, Choline chloride 0.443 M, 40% v/v propylene glycol, 10% v/v ethanol, 0.025 M phosphate buffer): 7.93 | Saturated Solubility (Ref. FD4068 112B, Choline chloride 0.184 M (25.75 mg/ml, 1:5), 40% v/v propylene glycol, 10% v/v ethanol, 0.025 M phosphate buffer pH 8): 62.7 mg/mL | pH of CN-Cbl Solution (Ref. FD4068 112B, Choline chloride 0.184 M, 40% v/v propylene glycol, 10% v/v ethanol, 0.025 M phosphate buffer): 7.97 | Saturated Solubility (Water, Equilibrium Time 16 hours): 15.25 mg/mL | Saturated Solubility (Water, Equilibrium Time 24 hours): 15.47 mg/mL | Saturated Solubility (Water, Equilibrium Time 40 hours): 15.27 mg/mL | Saturated Solubility, mean (Water, mean of equilibrium times 16, 24, 40 hours): 15.33 mg/mL | pH of CN-Cbl Solution (saturated in 0.1 M Choline (12.12 mg/ml)): 12.5 and 12.49 | pH of CN-Cbl Solution (saturated in 0.1 M Diethanolamine (10.51 mg/ml)): 10.15 | pH of CN-Cbl Solution (saturated in 0.1 M L-arginine (17.42 mg/ml)): 10.22 | pH of CN-Cbl Solution (saturated in 0.1 M L-lysine (16.42 mg/ml)): 9.59 | pH of CN-Cbl Solution (saturated in 0.1 M Meglumine (19.52 mg/ml)): 10.70 | pH of CN-Cbl Solution (saturated in 0.1 M Triethanolamine (14.92 mg/ml)): 9.26 | pH of CN-Cbl Solution (saturated in 0.1 M Triethylamine (10.12 mg/ml)): 11.42
